Data set [1] addresses α1-adrengergic receptor. Nature of the data set: Displacement of specific binding of [3H]prazosin from rat forebrain membranes. To be noted: 0.2 nM [3H]prazosin, IC50 for displacement of specific binding. The method, then: (§1) Affinity for the NR2B subunit containing NMDA receptor is measured as the IC50 for displacement of specific binding of racemic [^3H]
Forebrains of adult male Sprague Dawley rats are homogenized in 20 volumes of ice cold 50 mM Tris/HCl buffer (pH 7.7). The homogenate is centrifuged at 50,000 X g for 10 min. at 4° C. The pellet is resuspended and centrifuged under identical conditions and the final pellet is resuspended in 80 volumes of 50 mM Tris/HCl (pH 8.0) at 4° C.
For binding assays, compounds under study are added at various concentrations to 500 μg membrane protein in 1 ml of 50 mM Tris/HCl buffer, followed by [^3H]prazosin (Amersham, specific activity 33 Ci/mmol, 0.2 nM final concentration). Following incubation for 30 min at 25° C. in a shaking water bath, samples are filtered onto Whatman GFB glass fiber filters using a MB48R Cell Harvester (Brandel Research and Development Laboratories, Gaithersburg Md.). Filters are washed three times for 10 s with ice cold Tris HCl buffer and the radioactivity trapped on the filter quantified by liquid scintillation spectroscopy. Nonspecific binding is determined in parallel incubations containing 100 nM prazosin. Specific binding is defined as total binding minus nonspecific binding.

Data set [2] addresses T1, NR2B subunit containing NMDA receptor (Rattus norvegicus, UniProt P35439+Q00960).
T1 construct: from rat forebrain membranes; from tissue; host or cells: forebrain membranes of adult male CD rats
Kind of data set: Displacement of specific binding of racemic [3H](+)-(1S, 2S)-1-(4-hydroxy-phenyl)-2-(4-hydroxy-4-phenylpiperidino)-1-propanol ([3H]CP-101,606) from rat forebrain membranes. Particulars: for Ratio [3H]Prazosin/[3H](+)-(1S, 2S)-1-(4-hydroxy-phenyl)-2-(4-hydroxy-4-phenylpiperidino)-1-propanol: selectivity for NR2B NMDA receptor over α1 adrenergic receptor, ratio of the two IC50, greater than three is considered selective. The method, then: This affinity is assessed in a radioligand binding assay as described below.
The binding of racemic [^3H] […] Forebrains of adult male CD rats are homogenized in 0.32M sucrose at 4° C. The crude nuclear pellet is removed by centrifugation at 1,000×g for 10 min., and the supernatant centrifuged at 17,000×g for 25 min. The resulting pellet is resuspended in 5 mM Tris acetate pH 7.4 at 4° C. for 10 min. to lyse cellular particles and again centrifuged at 17,000×g. The resulting pellet is washed twice in Tris acetate, resuspended at 10 mg protein/ml and stored at −20° C. until use.
For binding assays, membranes are thawed, homogenized, and diluted to 0.5 mg protein/ml with 50 mM Tris HCl, pH 7.4. Compounds under study are added at various concentrations followed by racemic [^3H] […] Filters are washed for 10 s with ice cold Tris HCl buffer and the radioactivity trapped on the filter quantified by liquid scintillation spectroscopy. […] Specific binding is defined as total binding minus nonspecific binding.
as §1

Bounds are passed on as bounds.

The values that follow come from patent US20010007872A1, “METHOD OF TREATING ACUTE, CHRONIC AND/OR NEUROPATHIC PAIN” (priority 1998, published 2001).

A word on the IC50: it is the concentration needed to halve the response being measured. A low value points to inhibition by little substance. What is called melting point is the temperature of the solid-liquid transition.

T1 sequence (Q00960 27-1482, other chains not shown): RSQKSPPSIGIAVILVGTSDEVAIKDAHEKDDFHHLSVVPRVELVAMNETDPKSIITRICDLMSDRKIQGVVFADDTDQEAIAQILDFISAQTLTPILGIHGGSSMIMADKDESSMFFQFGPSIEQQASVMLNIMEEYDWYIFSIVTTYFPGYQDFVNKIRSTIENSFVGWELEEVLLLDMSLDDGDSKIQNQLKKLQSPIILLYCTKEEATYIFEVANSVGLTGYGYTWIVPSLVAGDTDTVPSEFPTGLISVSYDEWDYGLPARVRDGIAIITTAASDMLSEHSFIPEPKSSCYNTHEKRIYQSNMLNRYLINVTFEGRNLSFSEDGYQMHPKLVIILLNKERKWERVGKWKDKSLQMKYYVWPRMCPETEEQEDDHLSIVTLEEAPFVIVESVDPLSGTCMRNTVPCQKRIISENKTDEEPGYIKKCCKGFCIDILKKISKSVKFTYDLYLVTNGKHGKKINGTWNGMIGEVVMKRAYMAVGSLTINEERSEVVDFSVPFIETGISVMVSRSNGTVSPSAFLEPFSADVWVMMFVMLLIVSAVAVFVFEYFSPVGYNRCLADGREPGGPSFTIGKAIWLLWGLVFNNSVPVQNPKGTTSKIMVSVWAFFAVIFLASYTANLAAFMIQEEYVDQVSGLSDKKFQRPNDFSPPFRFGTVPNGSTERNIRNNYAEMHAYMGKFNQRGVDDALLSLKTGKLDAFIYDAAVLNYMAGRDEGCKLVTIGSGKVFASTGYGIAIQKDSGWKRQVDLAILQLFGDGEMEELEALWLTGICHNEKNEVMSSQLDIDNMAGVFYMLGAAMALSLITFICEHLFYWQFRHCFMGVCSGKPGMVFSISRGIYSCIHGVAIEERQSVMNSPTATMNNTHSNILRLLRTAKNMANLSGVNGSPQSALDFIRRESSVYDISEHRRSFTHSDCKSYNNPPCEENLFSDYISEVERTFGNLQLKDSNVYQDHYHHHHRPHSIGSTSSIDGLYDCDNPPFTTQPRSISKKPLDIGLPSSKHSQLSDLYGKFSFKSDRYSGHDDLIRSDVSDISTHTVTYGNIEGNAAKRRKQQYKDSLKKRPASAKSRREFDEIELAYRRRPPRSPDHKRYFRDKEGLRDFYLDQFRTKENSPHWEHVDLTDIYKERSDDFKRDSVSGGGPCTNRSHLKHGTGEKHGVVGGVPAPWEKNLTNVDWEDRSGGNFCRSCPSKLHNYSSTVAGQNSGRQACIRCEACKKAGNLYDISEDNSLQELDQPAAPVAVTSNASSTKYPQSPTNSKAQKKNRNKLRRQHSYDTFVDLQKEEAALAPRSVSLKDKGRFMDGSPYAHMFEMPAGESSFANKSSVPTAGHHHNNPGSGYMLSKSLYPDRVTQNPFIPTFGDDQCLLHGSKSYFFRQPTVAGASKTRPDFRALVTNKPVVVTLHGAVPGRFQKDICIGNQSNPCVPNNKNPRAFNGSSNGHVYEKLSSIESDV

On to `C[C@@H]([C@@H](O)c1ccc(O)cc1)N1CCC(O)(c2ccccc2)CC1` [(1S,2S)-1-(4-hydroxyphenyl)-2-(4-hydroxy-4-phenylpiperidin-1-yl)-1-propanol], for which the IC50 in data set [1] turned out to be 19500 nM.
In data set [1], `COc1cc([C@H](O)[C@H](C)N2CCC(O)(c3ccccc3)CC2)ccc1O` [1S, 2S 1-(4-hydroxy-3-methoxyphenyl)-2-(4-hydroxy-4-phenyl-piperidin-1-yl)-propan-1-ol] yielded an IC50 of 8100 nM. Besides, in data set [2], the half-maximal inhibitory concentration (IC50) stood at 94 nM and the “Ratio [3H]Prazosin/[3H](+)-(1S, 2S)-1-(4-hydroxy-phenyl)-2-(4-hydroxy-4-phenylpiperidino)-1-propanol” value (“Ratio” below) is on record as 86.
`Cc1cc([C@@H](OS(C)(=O)=O)[C@@H](C)N2CCC(O)(c3ccc(F)cc3)CC2)ccc1O` (racemic) [(1R*, 2R*)-1-(4-hydroxy-3-methylphenyl)-2-(4-(4-fluorophenyl)-4-hydroxypiperidin-1-yl)-propan-1-ol-mesylate] had an IC50 in data set [1] of 10000 nM. Besides, the “Ratio” value in data set [2] was determined as 714.
`Oc1ccc2c(c1)OCC(N1CCC(O)(c3ccc(F)cc3)CC1)[C@H]2O` (stereo in doubt): the melting point lay within 159 to 160 °C.
Consider `OC(CN1CCC(Cc2ccc(F)cc2)CC1)c1ccc(Cl)cc1` (stereo not shown) [Eliprodil, reference compound], for which the IC50 in data set [1] worked out at 980 ± 220 nM; in data set [2], 450 ± 130 nM. For the same molecule, the “Ratio” value in data set [2] was found to be 2.2.
For `Oc1ccc2c(c1)OC[C@@H](N1CCC(O)(c3ccc(F)cc3)CC1)[C@H]2O` [(3R,4S)-3-[4-(4-fluorophenyl)-4-hydroxy-piperidin-1-yl] -chroman-4,7-diol], in data set [1], the half-maximal inhibitory concentration (IC50) was > 10000 nM. Also, in data set [2], the IC50 was 18 ± 3 nM and the “Ratio” value is given as “≧555”.
